We go through four compounds from US8716282B2, “Imidazo[1,2-b]pyridazine derivatives and their use as PDE10 inhibitors” (Janssen Pharmaceutica NV, priority 2009, dated 2014).

≈ marks a conversion by molar mass, not a printed value. Like-named read-outs stand apart in the source and are kept apart here. A value given as a limit tells only on which side of the number the result lay.

Series [1] can be described thus: Solubility as a function of pH at 20° C. Type of series: physicochemical. The procedure:
After removing the undissolved compound (0.45 μm Millex LCR filter), the concentration in the solution was determined using UV spectrometry. The pH of the solution was measured.

The subject of series [2] is novel object recognition in female hooded-Lister rats. Briefly: Object recognition test (NOR), sub-chronic PCP. Particulars: for effects of acute treatment in the NOR task: compound 1 0.3-1.0 mg/kg, PQ10 1.0 mg/kg, oral, 30 min prior to testing. It counts as in vivo, rat. As for the experimental part: 60 female hooded-Lister rats (Charles River, UK) were used as subjects for these studies and weighed 248 g±20 g. Rats were allowed at least a 7-day acclimatization period to the animal unit prior to commencement of experimentation. Rats were housed in groups of 5 under standard laboratory conditions under a 12 h light:dark cycle, lights on at 0700 h. All testing was carried out in the light phase. Food and water were freely provided. All experiments were conducted in accordance with the Animals Scientific Procedures Act, U.K. 1986 and were approved by the University of Bradford ethical review panel.
40 mg of test compound was dissolved in 5 ml of 40% hydroxypropyl β-cyclodextrin (HPBC) solution. The solution was sonicated until completely dissolved. 2 ml of sterile water was added and the pH measured and adjusted with NaOH solution (0.1N) to obtain pH ˜4. Finally, sterile water was added to a final volume of 10 ml. This stock solution was then diluted in 20% HPBC to obtain the final concentrations.
100 mg of PQ10 was dissolved in a 40% HPBC solution and 8 mg of tartaric acid. The solution was sonicated until completely dissolved. 5 ml of sterile water was added and the pH measured and adjusted with NaOH solution (0.1N) to obtain pH ˜4. Finally sterile water was added to a final volume of 10 ml.
Test compound was administered at doses of 0.3 and 1.0 mg/kg via the oral route 30 min prior to testing.
PQ10 was administered at a dose of 1.0 mg/kg via the oral route 30 min prior to testing.
Certain pre-clinical tests allow the observation of relatively subtle cognitive deficits in the rat that resemble cognitive symptoms in subjects with schizophrenia. The cognitive deficits observed are seen in behaviours such as episodic memory, which can be measured by recognition tasks such as the novel object recognition (NOR) paradigm. A recognition memory task allows the comparison between presented stimuli and previously stored information. […] Object recognition in rats can be measured as the difference in time spent exploring the familiar and the new object. […]

The nature of series [3]: Intrinsic dissolution rate (IDR) of miniaturized pellets. It counts as physicochemical. As to conditions: 37.0±0.5° C.; for Average IDR: 0.01M HCl at 100 rpm, miniaturized pellets; for intrinsic dissolution rate (IDR): pellets of 0.0754 cm^2. As for the experimental part: The intrinsic dissolution rate was measured using a DISS Profiler™ system consisting in both a mini-bath and UV fiber optic (5 mm pathlength) probes connected to a photodiode array (PDA) spectrophotometer (from pION Inc). Each pellet prepared were positioned in individual vessels. The intrinsic dissolution test was performed using 0.01 M HCl (20 mL) maintained at 37.0±0.5° C. with a stirring rate of 100 rpm. The concentration measurements were performed using UV detection at 326 nm. The intrinsic dissolution rate (IDR) was calculated by dividing the dissolution rate by the exposure area of pellet (0.0754 cm^2).

Series [4] in a line: Adsorption-desorption (dynamic vapor sorption). Type of series: physicochemical. Particulars: for weight loss during the initial drying step: 60 min. under dry nitrogen at 25° C.; for hygroscopic behavior / physical form during the DVS test: DVS, 25° C., RH 0-95%.

As for `COCCc1ccc(-c2c(C)nc3c(N4CCOCC4)ccnn23)cn1` [Compound 1, 3-[6-(2-methoxyethyl)-3-pyridinyl]-2-methyl-8-(4-morpholinyl)-imidazo[1,2-b]pyridazine], the solubility is 0.009 mg/mL (≈ 25.5 µM) in series [1] (aqueous buffer, thermodynamic from solid, borate-KCl—NaOH buffer pH 9, pH of solution 8.9, anhydrous free base); 0.012 mg/mL (≈ 34 µM) in series [1] (aqueous buffer, thermodynamic from solid, citrate-NaOH buffer pH 5, pH of solution 5.0, anhydrous free base); 0.61 mg/mL (≈ 1730 µM) in series [1] (aqueous buffer, thermodynamic from solid, citrate-NaOH—HCl buffer pH 2, pH of solution 2.9, anhydrous free base); 0.008 mg/mL (≈ 22.6 µM) in series [1] (aqueous buffer, thermodynamic from solid, phosphate buffer pH 7, pH of solution 7.0, anhydrous free base); 0.008 mg/mL (≈ 22.6 µM) in series [1] (aqueous buffer, thermodynamic from solid, phosphate-NaOH buffer pH 12, pH of solution 11.9, anhydrous free base); 2.5 mg/mL (≈ 7070 µM) in series [1] (pH 2.5, simulated gastric fluid, thermodynamic from solid, 0.1N HCl, pH of solution 2.5, anhydrous free base). Further, the solubility in series [1] (pH 3, simulated gastric fluid, thermodynamic from solid, 0.01N HCl, pH of solution 3.0, anhydrous free base) is 0.32 mg/mL (≈ 905 µM); in series [1] (pH 8.7, thermodynamic from solid, water, pH of solution 8.7, anhydrous free base), 0.009 mg/mL (≈ 25.5 µM); in series [1] (pH 12.9, aqueous buffer, thermodynamic from solid, 0.1N NaOH, pH of solution 12.9, anhydrous free base), 0.008 mg/mL (≈ 22.6 µM). Further, the “effects of acute treatment in the NOR task” value in series [2] was “selective for the retention phase of the NOR task”. For the same compound, the “Average IDR” value in series [3] is on record as 0.8170 mg · min^−1 · cm^−2. Also, the “intrinsic dissolution rate (IDR)” value in series [3] (0.01 M HCl, 100 rpm) was 0.82 mg·min^−1·cm^−2. Further, the “weight loss during the initial drying step” value in series [4] was 0.06%. Also, the hygroscopic behavior entry in series [4] is on record as “no hygroscopic behavior”. Also, the “physical form during the DVS test” value in series [4] is listed as “remained the same physical form”.

For the compound `COCCc1ccc(-c2c(C)nc3c(N4CCOCC4)ccnn23)cn1.O` [Compound 1c, 3-[6-(2-methoxyethyl)-3-pyridinyl]-2-methyl-8-(4-morpholinyl)-imidazo[1,2-b]pyridazine monohydrate], in series [3], the “Average IDR” value is 1.1011 mg · min^−1 · cm^−2. In series [3] (0.01 M HCl, 100 rpm), the “intrinsic dissolution rate (IDR)” value is listed as 1.10 mg·min^−1·cm^−2.

In the case of `COCCc1ccc(-c2c(C)nc3c(N4CCOCC4)ccnn23)cn1.O=P(O)(O)O` [Compound 1d, 3-[6-(2-methoxyethyl)-3-pyridinyl]-2-methyl-8-(4-morpholinyl)-imidazo[1,2-b]pyridazine phosphate], the solubility was 0.1 mg/mL in series [1] (aqueous buffer, thermodynamic from solid, borate-KCl—NaOH buffer pH 9, pH of solution 7.4, phosphate salt, read-out: Solubility (mg/mL) of compound 1d); 0.14 mg/mL in series [1] (aqueous buffer, thermodynamic from solid, citrate-NaOH buffer pH 5, pH of solution 4.9, phosphate salt, read-out: Solubility (mg/mL) of compound 1d); 20.2 mg/mL in series [1] (aqueous buffer, thermodynamic from solid, citrate-NaOH—HCl buffer pH 2, pH of solution 2.5, phosphate salt, read-out: Solubility (mg/mL) of compound 1d); 0.09 mg/mL in series [1] (aqueous buffer, thermodynamic from solid, phosphate buffer pH 7, pH of solution 6.8, phosphate salt, read-out: Solubility (mg/mL) of compound 1d); 0.1 mg/mL in series [1] (aqueous buffer, thermodynamic from solid, phosphate-NaOH buffer pH 12, pH of solution 11.2, phosphate salt, read-out: Solubility (mg/mL) of compound 1d); 46 mg/mL in series [1] (pH 2.1, simulated gastric fluid, thermodynamic from solid, 0.1N HCl, pH of solution 2.1, phosphate salt, read-out: Solubility (mg/mL) of compound 1d). Besides, the solubility in series [1] (pH 2.5, simulated gastric fluid, thermodynamic from solid, 0.01N HCl, pH of solution 2.5, phosphate salt, read-out: Solubility (mg/mL) of compound 1d) was 11.9 mg/mL; in series [1] (pH 2.6, thermodynamic from solid, water, pH of solution 2.6, phosphate salt, read-out: Solubility (mg/mL) of compound 1d), 9.7 mg/mL; in series [1] (pH 12.5, aqueous buffer, thermodynamic from solid, 0.1N NaOH, pH of solution 12.5, phosphate salt, read-out: Solubility (mg/mL) of compound 1d) it was 0.1 mg/mL. In addition, in series [1] (in vitro results), the “solubility compared to the anhydrous free base form (compound 1)” value is “much higher solubility”. Moreover, the “Average IDR” value in series [3] was found to be 2.5172 mg · min^−1 · cm^−2. The “time until pellets were totally dissolved” value in series [3] (0.01 M HCl, 100 rpm) is at most 10 min. Besides, the “intrinsic dissolution rate (IDR)” value in series [3] (0.01 M HCl, 100 rpm) is 2.52 mg·min^−1·cm^−2. Also, the “weight loss during the initial drying step” value in series [4] is listed as 0.3%. Further, the hygroscopic behavior result in series [4] was “no hygroscopic behavior”. For the same compound, the “physical form during the DVS test” value in series [4] is recorded as “remains crystalline”.

As to `COc1cc2ncnc(N3CC[C@@H](Oc4cnc5ccccc5n4)C3)c2cc1OC` [PQ10], the “T2(A) exploration time of familiar object, retention trial” value in series [2] (PCP + 1 mg/kg p.o., mean) was 7.9 s. Besides, the “effects of acute treatment in the NOR task” value in series [2] was “selective for the retention phase of the NOR task”.
